Read-outs that look alike come from different tables or passages of the source.
How the values were obtained:
Human KLK1 = Human KLK1 (Homo sapiens (Human), UniProt P06870); experiment: Determination of the IC50 for KLK1; assay type: biochemical; conditions: Human KLK1, 37° C., substrate H-DVal-Leu-Arg-AFC
Method: Determination of the IC50 for KLK1
(§1) KLK1 inhibitory activity in vitro was determined using standard published methods (see e.g. Johansen et al., Int. J. Tiss. Reac. 1986, 8, 185; Shori et al., Biochem. Pharmacol., 1992, 43, 1209; Stürzebecher et al., Biol. Chem. Hoppe-Seyler, 1992, 373, 1025). Human KLK1 (Callbiochem) was incubated at 37° C. with the fluorogenic substrate H-DVal-Leu-Arg-AFC and various concentrations of the test compound. Residual enzyme activity (initial rate of reaction) was determined by measuring the change in optical absorbance at 410 nm and the IC50 value for the test compound was determined.

Human plasma kallikrein = Human plasma kallikrein (Homo sapiens (Human), UniProt P03952); experiment: Determination of the IC50 for plasma kallikrein; assay type: biochemical; conditions: 37° C., read-out: IC50 (human PKal)
Method: Determination of the IC50 for Plasma Kallikrein
as §1, with “Plasma kallikrein” for “KLK1”, “Stiirzebecher” for “Stürzebecher”, “plasma kallikrein (Protogen)” for “KLK1 (Callbiochem)”, “H-DPro-Phe-Arg-AFC” for “H-DVal-Leu-Arg-AFC”

[1] = fluorogenic substrate H-DPro-Phe-Arg-AFC

Sequence of Human plasma kallikrein (P03952 391-638): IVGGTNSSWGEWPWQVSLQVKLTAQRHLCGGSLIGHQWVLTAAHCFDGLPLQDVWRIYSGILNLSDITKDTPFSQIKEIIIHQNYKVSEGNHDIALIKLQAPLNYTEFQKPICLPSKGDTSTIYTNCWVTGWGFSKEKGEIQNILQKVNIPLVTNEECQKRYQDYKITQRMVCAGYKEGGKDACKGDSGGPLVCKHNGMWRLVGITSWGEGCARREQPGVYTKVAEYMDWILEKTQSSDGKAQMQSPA
Sequence of Human plasma kallikrein (P03952 20-390 partner): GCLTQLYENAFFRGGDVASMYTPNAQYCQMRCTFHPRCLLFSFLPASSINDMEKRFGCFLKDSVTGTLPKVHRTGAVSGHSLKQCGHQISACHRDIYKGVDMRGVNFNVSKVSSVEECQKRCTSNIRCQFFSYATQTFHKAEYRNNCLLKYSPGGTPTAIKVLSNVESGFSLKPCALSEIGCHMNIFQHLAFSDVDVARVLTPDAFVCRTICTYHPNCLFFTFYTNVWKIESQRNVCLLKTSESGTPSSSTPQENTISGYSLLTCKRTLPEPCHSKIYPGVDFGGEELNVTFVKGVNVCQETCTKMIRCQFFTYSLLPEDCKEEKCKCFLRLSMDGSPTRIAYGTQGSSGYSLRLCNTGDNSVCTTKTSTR
Sequence of Human KLK1 (P06870 25-262): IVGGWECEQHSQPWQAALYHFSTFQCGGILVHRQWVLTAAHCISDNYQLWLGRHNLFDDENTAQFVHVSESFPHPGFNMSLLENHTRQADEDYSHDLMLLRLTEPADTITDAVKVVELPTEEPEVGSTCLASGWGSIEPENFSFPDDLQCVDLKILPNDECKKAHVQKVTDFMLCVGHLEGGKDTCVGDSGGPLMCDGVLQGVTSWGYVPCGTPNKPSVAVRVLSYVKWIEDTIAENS

Row | IC50 (Human KLK1; Table 12) [µM] | IC50 (Human plasma kallikrein; [1]) [µM] | IC50 (Human KLK1; Table 13) [µM] | IC50 (Human plasma kallikrein; substrate H-DPro-Phe-Arg-AFC) [µM] | Compound
1 | 5.6 | 0.031 | – | – | CCOc1ccc(C[C@@H](NC(=O)CC)C(=O)N[C@@H](Cc2ccccc2)C(=O)NCc2ccc(CN)c(Cl)c2)cc1 [Example 23, (S)-N-(4-Aminomethyl-3-chloro-benzyl)-2-[(R)-3-(4-ethoxy-phenyl)-2-propionylamino-propionylamino]-3-phenyl-propionamide]
2 | – | – | 9.9 | 0.044 | CCOc1ccc(C[C@@H](NC(=O)c2cccs2)C(=O)N[C@@H](Cc2ccc(Cl)c(Cl)c2)C(=O)NCc2ccc(CN)cc2)cc1 [Example 169, Thiophene-2-carboxylic acid [(R)-1-[(S)-1-(4-aminomethyl-benzylcarbamoyl)-2-(3,4-dichloro-phenyl)-ethylcarbamoyl]-2-(4-ethoxy-phenyl)-ethyl]-amide]
3 | – | – | 8.4 | 0.256 | CCOc1ccc(C[C@@H](NC(=O)c2ccc(Cl)nc2Cl)C(=O)N[C@@H](Cc2ccccc2)C(=O)NCc2ccc(CN)cc2)cc1 [Example 106, N-[(R)-1-[(S)-1-(4-Aminomethyl-benzylcarbamoyl)-2-phenyl-ethylcarbamoyl]-2-(4-ethoxy-phenyl)-ethyl]-2,6-dichloro-nicotinamide]
4 | – | – | 3.7 | 0.099 | CCOc1ccc(C[C@@H](NC(=O)c2ccccc2Cl)C(=O)N[C@@H](Cc2ccccc2)C(=O)NCc2ccc(CN)cc2)cc1 [Example 89, N-[(R)-1-[(S)-1-(4-Aminomethyl-benzylcarbamoyl)-2-phenyl-ethylcarbamoyl]-2-(4-ethoxy-phenyl)-ethyl]-2-chloro-benzamide]
5 | – | – | > 10 | 0.881 | CCOc1ccc(C[C@@H](NC(=O)CC(F)(F)F)C(=O)N[C@@H](Cc2ccc(Cl)c(Cl)c2)C(=O)NCc2ccc(CN)cc2)cc1 [Example 172, N-[(R)-1-[(S)-1-(4-Aminomethyl-benzylcarbamoyl)-2-(3,4-dichloro-phenyl)-ethylcarbamoyl]-2-(4-ethoxy-phenyl)-ethyl]-3,3,3-trifluoro-propionamide]
6 | – | – | > 10 | 0.07 | CCOc1ccc(C[C@@H](NC(=O)c2ccccn2)C(=O)N[C@@H](Cc2ccc(Cl)c(Cl)c2)C(=O)NCc2ccc(CN)cc2)cc1 [Example 165, Pyridine-2-carboxylic acid [(R)-1-[(S)-1-(4-aminomethyl-benzylcarbamoyl)-2-(3,4-dichloro-phenyl)-ethylcarbamoyl]-2-(4-ethoxy-phenyl)-ethyl]-amide]
7 | – | – | > 10 | 10 | CCOc1ccc(C[C@@H](NC(=O)N(CC)Cc2ccccc2)C(=O)N[C@@H](Cc2ccccc2)C(=O)NCc2ccc(CN)cc2)cc1 [Example 103, (R)-N-[(S)-1-(4-Aminomethyl-benzylcarbamoyl)-2-phenyl-ethyl]-2-(3-benzyl-3-ethyl-ureido)-3-(4-ethoxy-phenyl)-propionamide]
8 | – | – | > 10 | 0.096 | CCOc1ccc(C[C@@H](NC(=O)c2ccccc2)C(=O)N[C@@H](Cc2ccc(Cl)cc2)C(=O)NCc2ccc(CN)cc2)cc1 [Example 142, N-[(R)-1-[(S)-1-(4-Aminomethyl-benzylcarbamoyl)-2-(4-chloro-phenyl)-ethylcarbamoyl]-2-(4-ethoxy-phenyl)-ethyl]-benzamide]
9 | > 10 | 2.1 | – | – | COC(=O)CN[C@H](CC1CCCCC1)C(=O)N[C@@H](Cc1ccccc1)C(=O)NCc1ccc(CN)cc1 [Example 47, {(R)-1-[(S)-1-(4-Aminomethyl-benzylcarbamoyl)-2-phenyl-ethylcarbamoyl]-2-cyclohexyl-ethylamino}-acetic acid methyl ester]
10 | – | – | > 10 | 0.455 | CCOc1ccc(C[C@@H](NC(=O)c2nc(C)oc2C)C(=O)N[C@@H](Cc2ccccc2)C(=O)NCc2ccc(CN)cc2)cc1 [Example 113, 2,5-Dimethyl-oxazole-4-carboxylic acid [(R)-1-[(S)-1-(4-aminomethyl-benzylcarbamoyl)-2-phenyl-ethylcarbamoyl]-2-(4-ethoxy-phenyl)-ethyl]-amide]
11 | – | – | > 10 | 0.214 | CCOc1ccc(C[C@@H](NC(=O)c2ccnc(OC)c2)C(=O)N[C@@H](Cc2ccccc2)C(=O)NCc2ccc(CN)cc2)cc1 [Example 123, N-[(R)-1-[(S)-1-(4-Aminomethyl-benzylcarbamoyl)-2-phenyl-ethylcarbamoyl]-2-(4-ethoxy-phenyl)-ethyl]-2-methoxy-isonicotinamide]
12 | – | – | > 10 | 0.064 | CCOc1ccc(C[C@@H](NC(=O)c2ccc(Cl)cc2)C(=O)N[C@@H](Cc2ccccn2)C(=O)NCc2ccc(CN)cc2)cc1 [Example 163, N-[(R)-1-[(S)-1-(4-Aminomethyl-benzylcarbamoyl)-2-pyridin-2-yl-ethylcarbamoyl]-2-(4-ethoxy-phenyl)-ethyl]-4-chloro-benzamide]
13 | – | – | > 10 | 0.058 | CCOc1ccc(C[C@@H](NC(=O)c2sc(C)nc2C)C(=O)N[C@@H](Cc2ccccc2)C(=O)NCc2ccc(CN)cc2)cc1 [Example 111, 2,4-Dimethyl-thiazole-5-carboxylic acid [(R)-1-[(S)-1-(4-aminomethyl-benzylcarbamoyl)-2-phenyl-ethylcarbamoyl]-2-(4-ethoxy-phenyl)-ethyl]-amide]
14 | > 1 | 0.074 | – | – | CCOc1ccc(C[C@@H](NC(=O)CC)C(=O)N[C@@H](Cc2ccccc2)C(=O)NCc2ccc(CN)c(F)c2)cc1 [Example 7, (S)-N-(4-Aminomethyl-3-fluoro-benzyl)-2-[(R)-3-(4-ethoxy-phenyl)-2-propionylamino-propionylamino]-3-phenyl-propionamide]
15 | – | – | > 10 | 7.54 | COc1ccc(C[C@@H](NC(=O)c2ccccc2)C(=O)N[C@@H](Cc2ccccc2)C(=O)NCc2ccc(CN)cc2)cn1 [Example 137, N-[(R)-1-[(S)-1-(4-Aminomethyl-benzylcarbamoyl)-2-phenyl-ethylcarbamoyl]-2-(6-methoxy-pyridin-3-yl)-ethyl]-benzamide]
16 | – | – | > 10 | 1.02 | NCc1ccc(CNC(=O)[C@H](Cc2ccccc2)NC(=O)[C@@H](Cc2ccc(OCc3cccc(F)c3)cc2)NC(=O)c2ccccc2)cc1 [Example 136, N-{(R)-1-[(S)-1-(4-Aminomethyl-benzylcarbamoyl)-2-phenyl-ethylcarbamoyl]-2-[4-(3-fluoro-benzyloxy)-phenyl]-ethyl}-benzamide]
17 | – | – | 2.9 | 0.474 | CCOc1ccc(C[C@@H](NS(=O)(=O)Cc2ccccc2)C(=O)N[C@@H](Cc2ccccc2)C(=O)NCc2ccc(CN)cc2)cc1 [Example 100, (R)-N-[(S)-1-(4-Aminomethyl-benzylcarbamoyl)-2-phenyl-ethyl]-3-(4-ethoxy-phenyl)-2-phenylmethanesulfonylamino-propionamide]
18 | – | – | > 10 | 4.01 | NCc1ccc(CNC(=O)[C@H](Cc2ccccc2)NC(=O)[C@@H](CC2CCCCC2)NC(=O)c2ccccc2)cc1 [Example 126, N-{(R)-1-[(S)-1-(4-Aminomethyl-benzylcarbamoyl)-2-phenyl-ethylcarbamoyl]-2-cyclohexyl-ethyl}-benzamide]
19 | – | – | > 10 | 10 | NCc1ccc(CNC(=O)[C@H](Cc2ccccc2)NC(=O)[C@@H](Cc2ccc(OCc3c(Cl)cccc3Cl)cc2)NC(=O)c2ccccc2)cc1 [Example 134, N-{(R)-1-[(S)-1-(4-Aminomethyl-benzylcarbamoyl)-2-phenyl-ethylcarbamoyl]-2-[4-(2,6-dichloro-benzyloxy)-phenyl]-ethyl}-benzamide]
20 | – | – | > 10 | 0.54 | CCOc1ccc(C[C@@H](NC(=O)c2cccc(OC)n2)C(=O)N[C@@H](Cc2ccccc2)C(=O)NCc2ccc(CN)cc2)cc1 [Example 120, 6-Methoxy-pyridine-2-carboxylic acid [(R)-1-[(S)-1-(4-aminomethyl-benzylcarbamoyl)-2-phenyl-ethylcarbamoyl]-2-(4-ethoxy-phenyl)-ethyl]-amide]
21 | – | – | > 10 | 0.298 | CCOc1ccc(C[C@@H](NC(=O)c2cnc(C)s2)C(=O)N[C@@H](Cc2ccccc2)C(=O)NCc2ccc(CN)cc2)cc1 [Example 112, 2-Methyl-thiazole-5-carboxylic acid [(R)-1-[(S)-1-(4-aminomethyl-benzylcarbamoyl)-2-phenyl-ethylcarbamoyl]-2-(4-ethoxy-phenyl)-ethyl]-amide]
22 | > 10 | 2.2 | – | – | CN(CCO)[C@H](CC1CCCCC1)C(=O)N[C@@H](Cc1ccccc1)C(=O)NCc1ccc(CN)cc1 [Example 49, (R)-N-[(S)-1-(4-Aminomethyl-benzylcarbamoyl)-2-phenyl-ethyl]-3-cyclohexyl-2-[(2-hydroxy-ethyl)-methyl-amino]-propionamide]
23 | > 10 | 4.7 | – | – | CN(CC(N)=O)[C@H](CC1CCCCC1)C(=O)N[C@@H](Cc1ccccc1)C(=O)NCc1ccc(CN)cc1 [Example 48, (R)-N-[(S)-1-(4-Aminomethyl-benzylcarbamoyl)-2-phenyl-ethyl]-2-(carbamoylmethyl-methyl-amino)-3-cyclohexyl-propionamide]

From patent publication US9234000B2, “Benzylamine derivatives as inhibitors of plasma kallikrein” (KalVista Pharmaceuticals Limited, priority 2011, dated 2016)
